Laboratory results reported in patent publication US10681908B2, “Molecules having pesticidal utility, and intermediates, compositions, and processes, related thereto” (Dow AgroSciences LLC, priority 2016, dated 2020).

Legend:
Format in all cases: in vivo
[1] = tested on: Beet Armyworm (Spodoptera exigua, LAPHEG); experiment: Bioassay on Beet Armyworm (BAW), 128-well diet tray assay; details: 168 h, 50 μg/cm^2 on artificial diet, second instar larvae, five to seven days, 25° C., read-out: BAW % Control (or Mortality) rating
Outline: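 Mortality of second-instar larvae (one to five per well) was scored after five to seven days at 25 °C under 14:10 light-dark and averaged across eight wells. Each well's diet had received 50 μg/cm^2 test molecule from a 90:10 acetone-water solution, allowed to dry before infestation.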

[2] = tested on: Cabbage Looper (Trichoplusia ni, TRIPNI); experiment: Bioassay on Cabbage Looper (CL), 128-well diet tray assay; details: 168 h, 50 μg/cm^2 on artificial diet, second instar larvae, five to seven days, 25° C., read-out: CL % Control (or Mortality) rating
Outline: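 Percent mortality, averaged over eight wells, scored after five to seven days at 25° C. under 14:10 light-dark. Each well held 1–5 second-instar larvae on artificial diet treated with 50 μg/cm^2 test molecule applied in 90:10 acetone-water and dried.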

[3] = tested on: Green Peach Aphid (Myzus persicae, MYZUPE); experiment: Bioassay on Green Peach Aphid (GPA), foliar spray on infested cabbage seedlings; details: 72 h, 200 ppm foliar spray, three days, Abbott corrected % control, read-out: GPA % Control (or Mortality) rating
Experimental: Example B: Bioassays on Green Peach Aphid (Myzus Persicae, MYZUPE) (“GPA”)
Certain molecules disclosed in this document were tested against GPA using procedures described in the following example. In the reporting of the results, the “GPA & YFM Rating Table” was used (See Table Section).
Cabbage seedlings grown in 3-inch pots, with 2-3 small (3-5 cm) true leaves, were used as test substrate. The seedlings were infested with 20-50 GPA (wingless adult and nymph stages) one day prior to chemical application. Four pots with individual seedlings were used for each treatment. Test molecules (2 mg) were dissolved in 2 mL of acetone/methanol (1:1) solvent, forming stock solutions of 1000 ppm test molecule. The stock solutions were diluted 5× with 0.025% Tween 20 in water to obtain the solution at 200 ppm test molecule. A hand-held aspirator-type sprayer was used for spraying a solution to both sides of […] leaves until runoff. Reference plants (solvent check) were sprayed with the diluent only containing 20% by volume of acetone/methanol (1:1) solvent. Treated plants were held in a holding room for three days at approximately 25° C. and ambient relative humidity (RH) prior to grading. Evaluation was conducted by counting the number of live aphids per plant under a microscope. Percent Control was measured by using Abbott's correction formula (W. S. Abbott, “A Method of Computing the Effectiveness of an Insecticide” J. Econ. Entomol. 18 (1925), pp. 265-267) as follows. Corrected % Control=100*(X−Y)/X • where • X=No. of live aphids on solvent check plants and • Y=No. of live aphids on treated plants

[4] = tested on: Yellow Fever Mosquito (Aedes aegypti, AEDSAE); details: about 1 day-old larvae, 3 days, room temperature, scored on mortality
Outline: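 Compounds from DMSO master plates (4000 ppm stock) diluted with 90:10 water:acetone, then about 1-day-old larvae in liver-powder water added. Held covered at room temperature for 3 days; each well scored for mortality.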

Row | Compound | mortality at 50 µg/cm2 [1] | mortality at 50 µg/cm2 [2] | mortality at 200 ppm [3] | YFM % Control (or Mortality) rating [4]
1 | C[C@H](C[S+](C)[O-])NC(=O)c1ccc(/C(F)=C/C(c2cc(Cl)c(Cl)c(Cl)c2)C(F)(F)F)cc1C(F)(F)F (stereo partly drawn) [F88, N-((2R)-1-(Methylsulfinyl)propan-2-yl)-4-((Z)-1,4,4,4-tetrafluoro-3-(3,4,5-trichlorophenyl)but-1-en-1-yl)-2-(trifluoromethyl)benzamide] | 50 to 100% | 50 to 100% | 80 to 100% | 
2 | C[C@H](C[S+]([O-])CC(F)(F)F)NC(=O)c1ccc(/C(F)=C/C(c2cc(Cl)c(Cl)c(Cl)c2)C(F)(F)F)cc1C(F)(F)F (stereo partly drawn) [F3, 4-((Z)-1,4,4,4-tetrafluoro-3-(3,4,5-trichlorophenyl)but-1-en-1-yl)-N-((2R)-1-((2,2,2-trifluoroethyl)sulfinyl)propan-2-yl)-2-(trifluoromethyl)benzamide] | 50 to 100% | 50 to 100% | 0 to 80% | 
3 | CCS(=O)(=O)C[C@@H](C)NC(=O)c1ccc(/C(F)=C/C(c2cc(Br)cc(Br)c2)C(F)(F)F)cc1C(F)(F)F (stereo partly drawn) [F42, 4-((Z)-3-(3,5-Dibromophenyl)-1,4,4,4-tetrafluorobut-1-en-1-yl)-N—((R)-1-(ethylsulfonyl)propan-2-yl)-2-(trifluoromethyl)benzamide] | 50 to 100% | 50 to 100% | 0 to 80% | A (80-100)
4 | C[C@H](C[S+]([O-])CC(F)(F)F)NC(=O)c1ccc(/C(F)=C/C(c2cc(Cl)cc(Br)c2)C(F)(F)F)cc1C(F)(F)F (stereo partly drawn) [F68, 4-((Z)-3-(3-Bromo-5-chlorophenyl)-1,4,4,4-tetrafluorobut-1-en-1-yl)-N-((2R)-1-((2,2,2-trifluoroethyl)sulfinyl)propan-2-yl)-2-(trifluoromethyl)benzamide] | 50 to 100% | 50 to 100% | 0 to 80% | A (80-100)
5 | C[C@H](CS(=O)(=O)CC(F)(F)F)NC(=O)c1ccc(/C(F)=C/C(c2ccc(F)c(Cl)c2)C(F)(F)F)cc1C(F)(F)F (stereo partly drawn) [PF2, 4-((Z)-3-(3-Chloro-4-fluorophenyl)-1,4,4,4-tetrafluorobut-1-en-1-yl)-N—((R)-1-((2,2,2-trifluoroethyl)sulfonyl)propan-2-yl)-2-(trifluoromethyl)benzamide] | 50 to 100% | 50 to 100% | 0 to 80% | B (More than 0-Less than 80)
6 | CCS(=O)(=O)C[C@@H](C)NC(=O)c1ccc(/C(F)=C/C(c2cc(Cl)c(F)c(Cl)c2)C(F)(F)F)cc1C(F)(F)F (stereo partly drawn) [F43, 4-((Z)-3-(3,5-Dichloro-4-fluorophenyl)-1,4,4,4-tetrafluorobut-1-en-1-yl)-N—((R)-1-(ethylsulfonyl)propan-2-yl)-2-(trifluoromethyl)benzamide] | 50 to 100% | 50 to 100% | 80 to 100% | A (80-100)
7 | C[C@H](CS(=O)(=O)CC(F)(F)F)NC(=O)c1ccc(/C(F)=C/C(c2cc(Br)cc(Br)c2)C(F)(F)F)cc1C(F)(F)F (stereo partly drawn) [F69, 4-((Z)-3-(3,5-Dibromophenyl)-1,4,4,4-tetrafluorobut-1-en-1-yl)-N—((R)-1-((2,2,2-trifluoroethyl)sulfonyl)propan-2-yl)-2-(trifluoromethyl)benzamide] | 50 to 100% | 50 to 100% | 0 to 80% | A (80-100)
8 | C[C@H](CSCC(F)(F)F)NC(=O)c1ccc(/C(F)=C/C(c2cc(Cl)c(Cl)c(Cl)c2)C(F)(F)F)cc1C(F)(F)F (stereo partly drawn) [F1, 4-((Z)-1,4,4,4-tetrafluoro-3-(3,4,5-trichlorophenyl)but-1-en-1-yl)-N—((R)-1-((2,2,2-trifluoroethyl)thio)propan-2-yl)-2-(trifluoromethyl)benzamide] | 50 to 100% | 50 to 100% | 0 to 80% | 
9 | C[C@H](CS(=O)(=O)CCC(F)(F)F)NC(=O)c1ccc(/C(F)=C/C(c2cc(Cl)c(Cl)c(Cl)c2)C(F)(F)F)cc1C(F)(F)F (stereo partly drawn) [F130, 4-((Z)-1,4,4,4-tetrafluoro-3-(3,4,5-trichlorophenyl)but-1-en-1-yl)-2-(trifluoromethyl)-N—((R)-1-((3,3,3-trifluoropropyl)sulfonyl)propan-2-yl)benzamide] | 50 to 100% | 50 to 100% |  | B (More than 0-Less than 80)
10 | C[C@H](CSCC(F)(F)F)NC(=O)c1ccc(/C(F)=C/C(c2ccc(F)c(C(F)(F)F)c2)C(F)(F)F)cc1C(F)(F)F (stereo partly drawn) [F102, 4-((Z)-1,4,4,4-Tetrafluoro-3-(4-fluoro-3-(trifluoromethyl)phenyl)but-1-en-1-yl)-N—((R)-1-((2,2,2-trifluoroethyl)thio)propan-2-yl)-2-(trifluoromethyl)benzamide] | 50 to 100% | 50 to 100% |  | A (80-100)
11 | O=C(NCCSCCF)c1ccc(/C(F)=C/C(c2cc(Cl)c(Cl)c(Cl)c2)C(F)(F)F)cc1C(F)(F)F (centres unmarked) [F125, (Z)—N-(2-((2-Fluoroethyl)thio)ethyl)-4-(1,4,4,4-tetrafluoro-3-(3,4,5-trichlorophenyl)but-1-en-1-yl)-2-(trifluoromethyl)benzamide] | 50 to 100% | 50 to 100% |  | D (No activity noticed in this bioassay)
12 | C[C@H](CS(=O)(=O)CC(F)(F)F)NC(=O)c1ccc(/C(F)=C/C(c2cc(Cl)c(Cl)c(Cl)c2)C(F)F)cc1C(F)(F)F (stereo partly drawn) [F98, 4-((Z)-1,4,4-Trifluoro-3-(3,4,5-trichlorophenyl)but-1-en-1-yl)-N—((R)-1-((2,2,2-trifluoroethyl)sulfonyl)propan-2-yl)-2-(trifluoromethyl)benzamide] | 50 to 100% | 50 to 100% |  | A (80-100)
13 | C[C@H](CSCC(F)(F)F)NC(=O)c1ccc(/C(F)=C/C(c2cc(Cl)cc(Cl)c2)C(F)(F)F)cc1C(F)(F)F (stereo partly drawn) [F19, 4-((Z)-3-(3,5-Dichlorophenyl)-1,4,4,4-tetrafluorobut-1-en-1-yl)-N—((R)-1-((2,2,2-trifluoroethyl)thio)propan-2-yl)-2-(trifluoromethyl)benzamide] | 50 to 100% | 50 to 100% |  | A (80-100)
14 | C[C@H](CS(=O)(=O)CC(F)(F)F)NC(=O)c1ccc(/C(F)=C/C(c2ccc(Br)c(Br)c2)C(F)(F)F)cc1C(F)(F)F (stereo partly drawn) [F54, 4-((Z)-3-(3,4-Dibromophenyl)-1,4,4,4-tetrafluorobut-1-en-1-yl)-N—((R)-1-((2,2,2-trifluoroethyl)sulfonyl)propan-2-yl)-2-(trifluoromethyl)benzamide] | 50 to 100% | 50 to 100% |  | A (80-100)
15 | C[C@H](CS(=O)(=O)CC(F)(F)F)NC(=O)c1ccc(/C(F)=C/C(c2cc(Cl)cc(Br)c2)C(F)(F)F)cc1C(F)(F)F (some centres unmarked) [F65] | 50 to 100% | 50 to 100% |  | B (More than 0-Less than 80)
16 | C[C@H](CS(=O)(=O)CC(F)(F)F)NC(=O)c1ccc(/C(F)=C/C(c2cc(Cl)c(Cl)c(Cl)c2)C(F)(F)F)cc1C(F)(F)F (stereo partly drawn) [F2, 4-((Z)-1,4,4,4-tetrafluoro-3-(3,4,5-trichlorophenyl)but-1-en-1-yl)-N—((R)-1-((2,2,2-trifluoroethyl)sulfonyl)propan-2-yl)-2-(trifluoromethyl)benzamide] | 50 to 100% | 50 to 100% | 0 to 80% | 
17 | CCC(F)(F)c1cc(Cl)cc(C(/C=C(\F)c2ccc(C(=O)N[C@H](C)CS(=O)(=O)CC(F)(F)F)c(C(F)(F)F)c2)C(F)(F)F)c1 (stereo partly drawn) [F131, 4-((Z)-3-(3-Chloro-5-(1,1-difluoropropyl)phenyl)-1,4,4,4-tetrafluorobut-1-en-1-yl)-N—((R)-1-((2,2,2-trifluoroethyl)sulfonyl)propan-2-yl)-2-(trifluoromethyl)benzamide] | 50 to 100% | 50 to 100% |  | A (80-100)
